In patent publication US5661182A, “Method for lowering oxygen affinity of hemoglobin in redcell suspensions, in whole blood and in vivo” (Virginia Commonwealth University, priority 1995, dated 1997):
Entries after “also recorded” stand apart in the source; their conditions may differ.

Legend:
human red cells = experiment: Hemolysis of human red cells in vitro; format: cell-based
bovine red cells = experiment: Hemolysis of bovine red cells in vitro; format: cell-based
[1] = cited from earlier work
hemoglobin [2] = conditions: hemoglobin solutions, fresh intact red cells; cited from earlier work
hemoglobin [3] = experiment: Comparison of allosteric effector strength (right shift of oxygen equilibrium curve); format: biochemical; conditions: compounds of FIG. 1
deoxyhemoglobin [4] = molecular target: T1, deoxyhemoglobin (Homo sapiens, UniProt P68871+P69905); conditions: X-ray, literature; cited from earlier work
deoxyhemoglobin [5] = molecular target: T1, deoxyhemoglobin; experiment: X-ray crystallographic studies with deoxyhemoglobin; format: binding; conditions: near Arg 104β
Procedure: X-ray Crystallographic Studies. Hemoglobin for the crystal studies was prepared from human blood, and T-state deoxy crystals were obtained from ammonium sulfate solutions. RSR-4 or RSR-13 (2 effectors/I Hb) was dissolved in a slight excess of sodium bicarbonate to facilitate dissolution and was added to a 6 g % solution of deoxy-Hb in the glove box. A 1 g % Hb RSR-4 or RSR-13 solution was added to each crystallization tube. Crystals grew in approximately 1 week. X-ray data were collected with Friedel pairs using ω scans on a Rigaku AFC5R diffractometer equipped with a rotating anode and a 60-cm long evacuated beam tunnel. The crystals with allosteric effectors were isomorphous with native deoxy-Hb: RSR-4, 63.2, 83.7, and 53.8 Å, 99.4°; RSR-13, 63.2, 83.6, and 53.7 Å, 99.5°. Data collection (RSR-4 to 2.4-Å and RSR-13 to 2.8-Å resolution) was controlled by TEXAN software from Molecular Structure Corp. (The Woodlands, Tex.). There was little radiation damage to crystals, and new crystals were mounted when standard reference reflection intensities fell by 10%. All data were corrected for radiation damage when appropriate. The R-factors for the Friedel pairs and derivatives vs. native were as follows: RSR-4 (2.4 Å), 14.6% and 18.9%, and RSR-13 (2.8 Å), 7.2% and 12.5%, respectively. The difference electron density maps were obtained using the Cambridge computer programs (CCP4). […] The allosteric effector molecules were well resolved and easily fit to the difference density.

purified Hb Yakima = experiment: Effect on purified Hb Yakima; format: biochemical, human
[6] = molecular target: hemoglobin in fresh human red blood cells (Homo sapiens, UniProt P68871+P69905); experiment: Oxygen equilibrium curves of fresh human red cell suspensions (p50); format: cell-based; conditions: presence of DIDS
Procedure: Human blood was collected on heparin from healthy nonsmoking donors. Bovine blood was provided by Pr Delpech, INA (Paris-Grignon). Red blood cells were washed three times in isotonic buffer, kept at 4° C., and used within 24 h after sampling. Hemoglobin Yakima, a high-oxygen-affinity variant [α2 β2 99 (G1) Asp>>His], was obtained from a known heterozygous carrier. Fresh Yakima red cells were processed in the same way as described above.
L3,5 and L3,4,5 were provided by Dr. Lalezari (Montefiore Hospital, New York); RSR-4 [2-[4-[[(3,5-dichloroanilino)carbonyl]methyl]phenoxy]-2-methylpropionic acid]and RSR13 [2-4-[[(3,5- dimethylanilino)carbonyl]methyl]phenoxy]-2-methylpropionic acid] have been synthesized following the procedure described in Randad et al. (J. Med. Chem. 34,752 (1991)). Human serum albumin (HSA), bovine serum albumin (BSA) and 4,4'diisothiocyanatostilbene-2,2'-disulfonate (DIDS) were purchased from Sigma (St. Louis, Mo.). Due to their low solubility in aqueous buffer, 10 mM stock solutions of the compounds were prepared in a slight exccess of sodium bicarbonate and back-titrated to pH 7.4. For example, RSR-4 or RSR-13 was dissolved at 60° C. in a 140 mM NaCl and 50 mM bis-Tris buffer at room temperature upon progressive addition of NaHCO3 to obtain 10 mM stock solutions. The pH was carefully adjusted to 7.4 after complete solubilization and before use of the solutions. Fresh solutions were prepared each week. Stock solutions of DIDS (1 mM) were prepared, in the dark, on the day of the experiments in a pH 7.4 buffer. Human serum albumin (defatted HSA) and bovine serum albumin (BSA) were prepared freshly as 1 mM stock solutions, pH 7.4. Equilibrium Measurements. The allosteric modulation of the effectors on freshly prepared solutions of hemoglobin or red cell suspensions was measured by the change in p50, the partial pressure of oxygen for half-saturation. Oxygen equilibrium curves (OEC) were carried out with the Hemox analyzer (TCS, Southampton, Pa.) under the following conditions: pH 7.4, 140 mM NaCl and 50 mM bis-Tris buffer at 37° C. In all experiments, the concentration of hemoglobin in the red cell suspensions was 20-25 μM hemoglobin tetramer (Hb4) as measured by Drabkin's method (cyanomethemoglobin) at the end of each recording. The final concentration of the allosteric effector in the cuvette was 0.5 mM, resulting in an effector/Hb4 ratio of 20 in the absence of albumin. OEC were also made in the same buffer containing 12.5, 25, 50, and 100 μM HSA (for human red cell suspensions) or BSA (for bovine cell suspensions). The serum albumin experiments were carried out with traces of an antifoaming agent. This agent has no deleterious effect on the red cell suspensions. The molar ratio of albumin to tetrameric hemoglobin was varied from 0.5 (at 12.5 μM HSA) to 4 (at 100 μM HSA); in whole blood this ratio is approximately 0.3 (0.7 mM albumin plus plasma proteins/2.25 mM Hb4). Therefore, the concentration of albumin used in the present studies was always larger relative to tetrameric hemoglobin than that found in whole blood.
Equilibrium oxygen binding curves were also recorded for red cell suspensions (10% hematocrit) that had been reacted for 30 min in the dark at 37° C. with 20 μM DIDS, a specific inhibitor of the red cell membrane anion channel. Kinetic Experiments. The kinetics of the interaction between the effectors and intracellular hemoglobin were measured in the absence and presence of varying concentrations of HSA. The red cell suspensions were equilibrated under room air (pO2 =140 mmHg) at 37° C. in the optical cuvette of the Hemox analyzer, which provides a constant stirring of the suspensions. […] Changes in absorbance were recorded and stored on tape for further analyses. […]

Row | SMILES | lowering of oxygen affinity / allosteric potency (prior art, words) (hemoglobin [2]) | allosteric effector strength (hemoglobin [3]) | binding site in deoxyhemoglobin (prior art, words) (deoxyhemoglobin [4]) | second symmetry-related pair of binding sites (deoxyhemoglobin [5]) | state of purified Hb Yakima in the presence of effector (purified Hb Yakima) | further results
1 | Cc1cc(C)cc(NC(=O)Cc2ccc(OC(C)(C)C(=O)O)cc2)c1 [RSR-3] |  |  |  |  |  | hemolysis (human red cells): No hemolysis; hemolysis (bovine red cells): No hemolysis
2 | CC(C)(Oc1ccc(CCNC(=O)c2ccc(Cl)cc2)cc1)C(=O)O [bezafibrate] | much more effective in lowering the oxygen affinity of hemoglobin solutions and suspensions of fresh, intact red cells | weakest effector; also recorded: much stronger allosteric effect | bind to the same sites in the central water cavity of deoxyhemoglobin |  |  | inhibition of effect by serum albumin (prior art, words) [1]: significantly inhibited by serum albumin
3 | CC(C)(Oc1ccc(NC(=O)Nc2cc(Cl)c(Cl)c(Cl)c2)cc1)C(=O)O [L3,4,5, reference compound] |  | much stronger allosteric effect |  | have a second symmetry-related pair of binding sites near Arg 104β | remains locked in the high-affinity R-state | effect of DIDS (anion channel inhibitor) on the effect of the compounds [6]: does not inhibit the effects of the compounds
4 | O=C(O)C(COP(=O)(O)O)OP(=O)(O)O (stereo not shown) [DPG, 2,3-diphospho-glyceric acid] |  |  |  |  | remains locked in the high-affinity R-state | 
5 | CC(C)(Oc1ccc(CNC(=O)c2ccc(Cl)cc2)cc1)C(=O)O [MM-25] |  | somewhat stronger than bezafibrate |  | have a second symmetry-related pair of binding sites near Arg 104β |  | 
6 | CC(C)(Oc1ccc(Cl)cc1)C(=O)O [clofibric acid] | lowered the oxygen affinity of hemoglobin solutions | only a relatively small effect in terms of lowering the oxygen affinity of hemoglobin | bind to the same sites in the central water cavity of deoxyhemoglobin |  |  | 
